Assays:
OCI-LY3 IL6 = test: MALT-1 Cell IL-6 AlphaLISA Assay; type: cell-based; conditions: Homo sapiens; OCI-LY3 cells, 48 hours incubation; read-out: OCI-LY3 IL6 48 hour Inhibition EC50
Experimental: The following MALT-1 Cell Interleukin-6 (IL-6) AlphaLISA assay was conducted using a Perkin Elmer® IL-6 AlphaLISA® detection kit (PE AL223). The IL-6 detection assay is a homogeneous immunoassay that detects human IL-6 present in the cell culture medium in the MALT-1 dependent human ABC-DLBCL cell line, OCI-LY3. Compounds were pre-dispensed into Black 384w microtiter plates (Greiner, 781090) from 30 μM to 1.5 nM. Viable OCI-LY3 cells were then seeded on top of compounds at a seeding density of 50,000 cells/mL. Plates were then placed into 37° C. incubators for 48 hours. After 48 hours incubation, 2 μL of cell medium from each well was transferred into white ProxiPlates™ (PE 6008289). A fresh mix of AlphaLISA Acceptor beads (10 μg/mL) and Biotinylated IL-6 Antibody (1 nM) was made in AlphaLISA Immunoassay buffer and added to all wells (4 μL). The plates were incubated for 60 minutes at room temperature. Streptavidin donor beads (40 μg/mL) were prepared using the assay buffer and added to all wells (5 The plates were incubated for 30 minutes at room temperature and read using PE EnVision® reader. Results are shown in Table 3.

CYP3A4 mRNA = test: CYP3A4 Induction Assay (qPCR, human hepatocytes); type: in vitro ADME; conditions: cryopreserved human hepatocytes (plated), 10 μM compound, mRNA fold over vehicle (0.1% DMSO)
Experimental: (§1) CYP induction by compounds of the Examples was evaluated in vitro by determining the expression levels of CYP 3A4 mRNA using the qPCR (quantitative polymerase chain reaction) assay. On day one, cryopreserved human hepatocytes were thawed in prewarmed (37° C.) thawing medium (cryopreserved hepatocyte recovery medium, Gibco™ CM 7000; Thermo Fisher Scientific), centrifuged (1000 g for 10 minutes) and resuspended in plating medium (Gibco™ CM3000—Williams Medium E supplemented with hepatocytes plating supplement pak-serum containing; Thermo Fisher Scientific). Cells were counted by trypan blue exclusion using a hemocytometer and adjusted to a cell density of […]. Thereafter, […] of cell suspension was aliquoted per well in a 96-well plate, resulting in 60,000 cells/well. Plates were shaken in the north-south and east-west direction during plating. Plated cells were incubated at 37° C/5% CO2 in a humidified cell culture incubator for 4-6 hours. During this time, incubation medium (Gibco™ CM4000, cell maintenance supplement pack; Thermo Fisher Scientific) was mixed with Gibco™ Geltrex™ (Thermo Fischer Scientific) at the appropriate GeltrexTM protein concentration. Following recovery, medium was removed from cells and replaced with freshly prepared incubation medium. Cells were incubated overnight in a cell culture incubator (37° C./5% CO2).
(§2) The next day the incubation medium was prepared by combining the hepatocyte maintenance supplement pack with Williams Medium E. The medium was warmed to 37° C. 1000× dimethyl sulfoxide compound stocks of the compounds of the Examples were prepared to the desired concentrations. 10 mM compound stocks in dimethyl sulfoxide were diluted (1 μL to 1 mL CM4000; final concentration=10 μM). Overlay medium was aspirated and […] dose solution added to the desired labeled 96 well plate. Cells were then dosed with compound (10 μM) and prototypical induces at the targeted concentrations either 50 i.tM for omeprazole (Sigma 0104/lotBCBF-2161V) or 10 i.tM for rifampicin (Sigma R3501/lot 011M1159V). A negative control, probenecid, was dosed at 10 i.tM (Sigma P8761/lot 013K0148).
(§3) On day 3, RNA isolation was performed. All surfaces were cleaned using RNase RNAy. Total RNA was isolated using MagMAX Express 96 RNA Isolation System (Life Technologies, AM1830). Briefly, hepatocytes were washed once with 1X PBS (phosphate buffered saline). 145 μL of RNA Lysis Buffer was added to each well and each well was mixed by pipetting several times. Lysate was then transferred to a well of a 96 well Binding Plate. Samples were then mixed with 20 μL magnetic beads coming from the kit. RNA bound to beads was then captured by the magnetic tip manifold and beads were washed with the wash solution. Samples were treated with TURBOTmDNase. After TURBOTmDNase treatment, RNA was rebound to beads and washed with the provided wash buffer an additional two times. Beads are then dried, and RNA was eluted with 50 μL elution buffer. The eluted mRNA was transferred from the wells to RNase-free sealable microtiter plates and stored at -80° C. until use.
(§4) Following mRNA isolation, reverse transcription (RT) reactions were performed using TaqmanTm Reverse Transcription Reagents (ThermoFisher Scientific). RT master mix was prepared by mixing 2.5 μL 10× RT buffer, 5.5 μL 25 mM MgCl2, 5μL deoxyNTP mixture, 1.25 50 mM random hexamers, 0.5 μL 2× RNAse inhibitor, 0.625 μL multiscript RTase (50U/μL) and 0.625 μL water. An aliquot of RT mix (16 μL) and an aliquot of mRNA sample (9 μL) was added to each well of a 96-well plate. The SimpliAmpTM Thermal cycler PCR System VIIA7 from Applied Biosystems was used for reverse transcription under the following conditions: segment 1: 25° C. for 10 minutes; segment 2: 45° C. for 45 minutes; segment 3: 95° C. for 5 minutes; and segment 4: 4° C. hold; with 1 cycle for each segment. […]

CYP 3A4 mRNA = test: CYP3A4 Induction Assay (qPCR, human hepatocytes); type: in vitro ADME; conditions: 10 μM compound, relative to rifampicin 10 μM
Experimental: as §1, §2, §3, §4

human MALT-1 protein = human MALT-1 protein (Homo sapiens (Human), UniProt Q9UDY8); test: MALT-1 Biochemical Assay (Quench-FRET enzyme assay); conditions: human MALT-1 6 nM, substrate 2 μM, 40 min preincubation
Text: A Quenched Fluorescence Resonance Energy Transfer (Quench-FRET) enzyme assay was used to test the ability of exemplary MALT-1 inhibitors Example 1 to Example 39 to inhibit the cleavage of a MALT1 specific quenched fluorescent substrate of sequence [TAMRA-PEG2-Leu-Val-Ser-Arg-Gly-Ala-Ala-Ser-PEG2-K(QSY7) by human MALT-1 protein; where TAMRA is 6-carboxytetramethylrhodamine, PEG2 is 2-(2-(2-aminoethoxy)ethoxyamide linker, QSY7 is a non-fluorescent quenching dye (Thermo-Fisher catalog #Q10193). The assay was performed by pre-dispensing compounds into 384 well Proxiplates™ (PE 6008289). Human MALT-1 (6 nM) was prepared using the assay buffer (25 mM HEPES pH 7.5, 1 mM ethylenediaminetetraacetic acid, 0.8 M sodium citrate, 0.005% Bovine serum albumin (BSA), 2 mM dithiothreitol (DTT)) and added to the compound plates. The plates were incubated 40 minutes at room temperature. The reaction was carried out by adding the substrate (2 μM) to the plates and incubating for 60 minutes at room temperature. A fluorescence readout was then measured using a PE EnVision® reader (Ex.535/Em.590). […] EC50 is defined as the half maximal effective concentration of compound to inhibit MALT-1 protease activity.

Sequence of human MALT-1 protein (Q9UDY8 whole entry): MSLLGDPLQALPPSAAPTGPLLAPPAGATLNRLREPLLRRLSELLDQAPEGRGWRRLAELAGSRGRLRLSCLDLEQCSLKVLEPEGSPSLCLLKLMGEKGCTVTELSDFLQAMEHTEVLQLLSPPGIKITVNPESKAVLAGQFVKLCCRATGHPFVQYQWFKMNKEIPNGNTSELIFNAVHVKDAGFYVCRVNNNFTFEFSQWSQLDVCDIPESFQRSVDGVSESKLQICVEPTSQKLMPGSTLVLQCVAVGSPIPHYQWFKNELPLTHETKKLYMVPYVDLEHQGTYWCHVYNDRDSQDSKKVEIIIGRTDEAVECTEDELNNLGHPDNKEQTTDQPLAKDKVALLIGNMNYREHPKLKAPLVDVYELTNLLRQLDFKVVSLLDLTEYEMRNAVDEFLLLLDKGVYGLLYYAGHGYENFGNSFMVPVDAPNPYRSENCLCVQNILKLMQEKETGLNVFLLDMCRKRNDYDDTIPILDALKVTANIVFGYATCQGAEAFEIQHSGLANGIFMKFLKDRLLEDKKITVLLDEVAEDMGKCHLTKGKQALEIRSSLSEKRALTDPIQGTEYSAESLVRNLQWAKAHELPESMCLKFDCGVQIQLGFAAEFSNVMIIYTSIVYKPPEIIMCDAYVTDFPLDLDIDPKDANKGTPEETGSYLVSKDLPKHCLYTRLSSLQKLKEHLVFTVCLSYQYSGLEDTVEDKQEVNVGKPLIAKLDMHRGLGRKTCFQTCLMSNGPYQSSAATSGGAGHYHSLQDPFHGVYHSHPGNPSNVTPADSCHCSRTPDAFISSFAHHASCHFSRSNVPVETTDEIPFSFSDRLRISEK

SMILES	EC50 (OCI-LY3 IL6) [nM]	fold induction at 1 day, 10 µM (CYP3A4 mRNA)	CYP3A4 % of positive control (%) (CYP 3A4 mRNA)	EC50 (human MALT-1 protein) [nM]
CO[C@@H](C)c1c(Nc2ccc([C@H](N(C)C(=O)C3CCS(=O)(=O)CC3)C(F)(F)F)cc2)cnc2sc(C(F)F)nc12 [Example 15, N-{(1 5)-1-[4-({2-(difluoromethyl)-7-[(1S)-1-methoxyethyl][1,3]thiazolo[5,4-b]pyridin-6-yl}amino)phenyl]-2,2,2-trifluoroethyl}-N-methyl-1,1-dioxo-1λ^6-thiane-4-carboxamide]	300	0.413	(−4.74) %	103
CO[C@H](c1c(Nc2ccc([C@H](N(C)C(=O)C3CCN(C(C)=O)CC3)C(F)(F)F)cc2)cnc2sc(C)nc12)C(F)F [Example 18, 1-acetyl-N-{(1,5)-1-[4({7-[(1R)-2,2-difluoro-1-methoxyethyl]-2-methyl[1,3]thiazolo [5,4-b]pyridin-6-yl}amino)phenyl]-2,2,2-trifluoroethyl}-N-methylpiperidine-4-carboxamide]	1150	2.8	(16.5) %	284
CO[C@H](c1c(Nc2ccc([C@H](N(C)C(=O)C3CCN(C(=O)CO)CC3)C(F)(F)F)cc2)cnc2sc(C)nc12)C(F)F [Example 21, N-{(1S) -1-[4-({7-[(1R)-2,2-difluoro-1-methoxyethyl]-2-methyl[1,3]thiazolo[5,4-b]pyridin-6-yl}amino)phenyl]-2,2,2-trifluoroethyl}-1-(hydroxyacetyl)-N-methylpiperidine-4-carboxamide]	670	1.29	(5.55) %	141
CO[C@@H](C)c1c(Nc2ccc([C@H](N(C)C(=O)C3CCN(C(=O)CCO)CC3)C(F)(F)F)cc2)cnc2sc(C)nc12 [Example 22, 1-(3-hydroxypropanoyl)-N-methyl-N-{(1S)-2,2,2-trifluoro-1-[4-({7-[(1S)-1-methoxyethyl]-2-methyl[1,3]thiazolo[5,4-b]pyridin-6-yl}amino)phenyl]ethyl}piperidine-4-carboxamide]	380	1.09	(1.16) %	228

More lines, now with the values ahead:

EC50 (OCI-LY3 IL6) [nM]	fold induction at 1 day, 10 µM (CYP3A4 mRNA)	CYP3A4 % of positive control (%) (CYP 3A4 mRNA)	EC50 (human MALT-1 protein) [nM]	SMILES
180	1.38	(4.08) %	120	CO[C@@H](C)c1c(Nc2ccc([C@H](N(C)C(=O)C3CCN(C(=O)CO)CC3)C(F)(F)F)cc2)cnc2sc(C)nc12 [Example 20, 1-(hydroxyacetyl)-N-methyl-N-{(1S)-2,2,2-trifluoro-1-[4-({7-[(1S)-1-methoxyethyl]-2-methyl[1,3]thiazolo [5,4-b]pyridin-6-yl}amino)phenyl]ethyl}piperidine-4-carboxamide]
210	0.677	(−4.35) %	139	CO[C@@H](C)c1c(Nc2ccc([C@H](N(C)C(=O)C3CCN(C(=O)C(C)(C)O)CC3)C(F)(F)F)cc2)cnc2sc(C)nc12 [Example 23, 1-(2-hydroxy-2-methylpropanoyl)-N-methyl-N-{(1S)-2,2,2-trifluoro-1-[4-({7-[(1S)-1-methoxyethyl]-2-methyl[1,3]thiazolo[5,4-b]pyridin-6-yl}amino)phenyl]ethyl}piperidine-4-carboxamide]
12200	1.49	(7.62) %	979	CO[C@@H](C)c1c(Nc2ccc([C@H](N(C)C(=O)C3CCN(C(=O)C(O)CO)CC3)C(F)(F)F)cc2)cnc2sc(C)nc12 (stereo partly drawn) [Example 24, 1-(2,3-dihydroxypropanoyl)-N-methyl-N-{(1S)-2,2,2-trifluoro-1-[4-({7-[(1S)-1-methoxyethyl]-2-methyl[1,3]thiazolo[5,4-b]pyridin-6-yl}amino)phenyl]ethyl}piperidine-4-carboxamide]
250	1.16	(2.45) %	67	CO[C@@H](C)c1c(Nc2ccc([C@H](N(C)C(=O)C3CCN(C(=O)[C@@H](C)O)CC3)C(F)(F)F)cc2)cnc2sc(C)nc12 [Example 25, 1-[(2R)-2-hydroxypropanoyl]-N-methyl-N-{(1S)-2,2,2-trifluoro-1-[4-({7-[(1S)-1-methoxyethyl]-2-methyl[1,3]thiazolo [5,4-b]pyridin-6-yl}amino)phenyl]ethyl}piperidine-4-c arboxamide]
1150	1.17	(2.57) %	393	CO[C@@H](C)c1c(Nc2ccc([C@H](N(C)C(=O)C3CCN(C(=O)[C@H](C)O)CC3)C(F)(F)F)cc2)cnc2sc(C)nc12 [Example 26, 1-[(2S)-2-hydroxypropanoyl]-N-methyl-N-{(1S)-2,2,2-trifluoro-1-[4-({7-[(1S)-1-methoxyethyl]-2-methyl[1,3]thiazolo [5,4-b]pyridin-6-yl}amino)phenyl]ethyl}piperidine-4-c arboxamide]
410	1.47	(7.55) %	70	CO[C@@H](C)c1c(Nc2ccc([C@H](N(C)C(=O)C3CCN(C(=O)[C@H](O)CO)CC3)C(F)(F)F)cc2)cnc2sc(C)nc12 [Example 27, 1-[(2R)-2,3-dihydroxypropanoyl]-N-methyl-N-{(1S)-2,2,2-trifluoro-1-[4-({7-[(1 S)-1-methoxyethyl]-2-methyl[1,3]thiazolo [5,4-b]pyridin-6-yl}amino)phenyl]ethyl}piperidine-4-carboxamide]

From patent US20230312601A1, “THIAZOLO[5,4-B]PYRIDINE MALT-1 INHIBITORS” (AbbVie Inc., priority 2022, published 2023)
